In patent US20100004156A1, “Small Compounds That Correct Protein Misfolding and Uses Thereof” (priority 2005, published 2010):
Where a SMILES comes first, the peptide text is derived from it. The star is where a group is joined. Cbz = O=C(OCc1ccccc1)*

Columns and labels:
[1] = system: mutant P23H opsin; experiment: Recovery of correctly folded P23H rhodopsin from tetracycline-inducible HEK293 cells (immunoaffinity purification, absorbance at 500 nm); assay type: cell-based; details: for recovery of folded rhodopsins: in the presence of 11-cis-retinal, statement covers the rhodopsins of Table 1 (P23H and WT)
Method: (§1) Mutant P23H and wild-type opsins were expressed separately in tetracycline-inducible stable HEK293 cell lines in the presence of 11-cis retinal and various inhibitors. At forty-eight hours, the folded proteins were immununoaffinity purified and quantitated by UV-visible spectroscopy. The total amount of opsin protein was assayed at 280 nm. The amount of rhodopsin present in a biochemically functional conformation was assayed at 500 nm. Immunofluorescence microscopy was also performed to determine the cellular location of the proteins.
(§2) Stable wild-type and P23H opsin expressing HEK293 cell lines were generated in the Flp-In T-Rex system (Invitrogen). The BEK293 cells were grown in DMEM high glucose media supplemented with 10% fetal bovine serum, antibiotic-antimycotic solution, 5 μg/ml blasticidin and hygromycin at 37° C. in the presence of 8% CO2.
(§3) The opsin expressing HEK293 cell lines were allowed to reach confluence and were induced with 1 μg/ml tetracycline after a change of media. 10 μM 11-cis retinal was immediately added after induction under a red light, and inhibitors were added concurrently at the concentrations shown in Table 2 (below).
The plates were incubated for forty-eight hours. 10 uM of retinal was provided twenty-four hours after the first application, under red light.
Forty-eight hours after induction and inhibitor administration the HEK293 cells were harvested and rhodopsin was purified essentially as described in Noorwez et. al. (J Biol. Chem. 2004 Apr. 16; 279(16):16278-84). Spectrophotometric scans were taken in a Varian Cary 50 spectrophotometer.

[2] = system: P23H opsin; details: previous studies, Noorwez et al. J Biol Chem 2003; cited from earlier work
[3] = system: wild-type opsin; experiment: Recovery of wild-type rhodopsin from tetracycline-inducible HEK293 cells (immunoaffinity purification, absorbance at 500 nm); assay type: cell-based; details: 11-cis-retinal alone added to media of cells expressing wild-type opsin
Method: as §1, §2, §3
The plates were incubated for forty-eight hours. 10 uM of retinal was provided twenty-four hours after the first application, under red light. […]

| Compound | recovery of folded rhodopsins [1] | in vivo folding and stabilization of P23H opsin [2] | also measured |
| --- | --- | --- | --- |
| O[C@H]1[C@H](O)[C@@H](O)CN2CC[C@H](O)[C@H]12 [Castanospermine] | increased the recovery |  |  |
| C[C@H]1CCC/C=C/[C@@H]2C[C@H](O)C[C@H]2[C@H](O)/C=C/C(=O)O1 [Brefeldin A] | increased the recovery |  | increase in the yield of P23H rhodopsin ([1]; HEK293 cells, inhibitor added at induction with 11-cis-retinal, FIG. 4A): 2 fold |
| 7-ring locked isomer of 11-cis-retinal |  | promotes the in vivo folding and stabilization |  |
| CC(C)C[C@@H](C=O)NC(=O)[C@H](CC(C)C)NC(=O)[C@H](CC(C)C)NC(=O)OCc1ccccc1 [MG132, N-carbobenzoyl-Leu-Leu-Leu-CHO] (Cbz-Leu-Leu-Leu-aldehyde) | increased the recovery |  |  |
| CC1=C(/C=C/C(C)=C/C=C/C(C)=C/C=O)C(C)(C)CCC1 [11-cis-retinal] |  | promotes the in vivo folding and stabilization | increase in rhodopsin yield ([1]; 11-cis-retinal alone added to culture medium of cells expressing the P23H mutant): 5-6 fold; effect on rhodopsin yield [3]: no effect |
| CC1=C(/C=C/C(C)=C\C=C\C(C)=C\C=O)C(C)(C)CCC1 [9-cis-1-retinal] |  | promotes the in vivo folding and stabilization |  |
| Cl.N [Ammonium chloride] | increased the recovery |  |  |
| Cn1cnc(N)c2ncnc1-2 [3-methyladenine] | increased the recovery |  |  |
